Data from patent publication US20250066323A1, “INHIBITORS OF HUMAN RESPIRATORY SYNCYTIAL VIRUS AND METAPNEUMOVIRUS” (priority 2023, published 2025).

system: RSV-A2-GFP; test: RSV-A2-GFP viral replication assay; format: cell-based, Human Respiratory Syncytial Virus; settings: human respiratory syncytial virus, Calu-1, 96 h, read-out: RSV EC50, Calu-1 cells, RSV-A2-GFP MOI=1.2, 96 hrs, GFP-expressing cells counted
Text: GFP sequence was derived from pJTI™ R4 Dest CMV N-EmGFP pA Vector (Invitrogen) and was cloned into the intergenic sequence between wild-type RSV-A2 P and M genes using standard recombineering techniques. Recombinant RSV-A2-GFP was propagated in Hep2 cells (human cells contains HeLa marker chromosomes and were derived via HeLa contamination, ATCC CCL-23) with infection Multiplicity of Infection (MOI) of 0.1. Virus was harvested 3 days after infection by collecting all culture material and freeze-thaw the viral culture in liquid nitrogen for at least 5 times. To generating virus working stocks, thaw frozen samples in 37° C. water bath then centrifuge at 218 g for 15 min at 4° C. Add 1/10 of 10×SPG (Biological Industries 06-3061-01-5A), mix, aliquot supernatant, and quick-freeze in liquid nitrogen then transfer to −80° C. freezer for storage. Virus titer was determined by automated plaque assay in HEp-2 cells following methods described previously (Wen Z. et al.; J Virol Methods. 2019 January; 263:88-95).
Calu-1 cells (human lung epidermoid carcinoma, ATCC HTB-54) assay ready freezedown (ARF generation described separately) were used in assays. Compound plates were prepared by dispensing compounds dissolved in DMSO into wells of 384 well coming 3985 polystyrene flat clear bottom optical imaging microplates (202.5 nL/well) using an ECHO acoustic dispenser. Each compound was tested in a 10-point serial 3-fold dilution (typical final concentrations: 403 nM-0.02 nM and 40.3 nM-0.002 nM). […] To set up the assay, thaw ARF vial(s) in 37° C. water bath until small ice crystal remain and resuspend into assay media (DMEM containing 2% FBS, 100 U/ml Penicillin-Streptomycin). Count cells using default parameters on ViCell and dilute to 20,000 cells per ml in assay media. Add RSV GFP to cells at 24,000 pfu/ml (MOI=1.2). Mix by gentle inversion. 10 μl/well of 100% DMSO was dispensed to CellTiter-Glo (CTG) assay Max_E controls wells. Dispense cells at 50 μl/well using Bravo and 50 μl filtered tips into compound plates. Cover plates with MicroClime lids loaded with 7.5 ml of assay media to minimize evaporation. Incubate at 37 degrees C. and 5% CO2 for 96 hrs. Following incubation, distinct, GFP-expressing cells are counted using an Acumen imaging system with appropriate settings. A same-well CTG assay is performed by adding 10 μl/well reconstituted CellTiter-Glo reagent (Promega G7573) and reading plates on PerkinElmer Envision according to manufacturer's instructions. Raw data were loaded and analyzed in ActivityBase. Antiviral IC50 and cytotoxicity CC50 values were determined using a 4 parameter logistic fit based on the Levenberg-Marquardt algorithm. Model: 205-4 Parameter Logistic.
Calu-1 cells were purchased from ATCC (Cat #HTB-54) and are expanded in growth media (DMEM containing 10% FBS, 100 U/ml Penicillin-Streptomycin). To make ARF, remove and discard cell culture media, briefly rinse the cell layer with PBS to remove all traces of serum. Add 2.5 ml of TrypLE Express solution and incubate until cells dislodge, then add growth media and resuspend the cells by gentle pipetting. Count cells for concentration and determine viability using a ViCell. Centrifuge at RT, 300 g for 5 min to pellet cells. Gently aspirate supernatant, flick pellet to loosen cells. Resuspend cells in an appropriate volume of freezing medium (DMEM containing 10% DMSO, 10% FBS, 100 U/ml Penicillin-Streptomycin) to achieve 5×10^6/ml. Transfer 1 ml of cell suspension to freezing vials. Put vials to CoolCell cryopreservation container and place CoolCell container upright in a −80° C. freezer overnight before transferring vials to liquid nitrogen vapor for storage.

SMILES	EC50 [nM]
Cn1nc(-c2cscn2)cc1C(=O)NCC(O)(c1cc2c(c(-c3ccc(F)cc3)n1)OCC2(C)C(N)=O)C(F)(F)F (single isomer, unassigned) [Example 30-B, 7-(4-fluorophenyl)-3-methyl-5-(1,1,1-trifluoro-2-hydroxy-3-(1-methyl-3-(thiazol-4-yl)-1H-pyrazole-5-carboxamido)propan-2-yl)-2,3-dihydrofuro[2,3-c]pyridine-3-carboxamide]	< 10
Cn1nc(-n2cccn2)cc1C(=O)NCC(O)(c1cc(C(C)(C)N)cc(-c2ccc(F)cc2)n1)C1CC1 (single isomer, unassigned) [Example 35-B, N-(2-(4-(2-aminopropan-2-yl)-6-(4-fluorophenyl)pyridin-2-yl)-2-cyclopropyl-2-hydroxyethyl)-1′-methyl-1′H-[1,3′-bipyrazole]-5′-carboxamide]	< 10
Cn1nc(-n2cccn2)cc1C(=O)NCC(O)(c1cc(C(C)(C)N)cc(-c2ccc(F)cc2)n1)C(F)(F)F (single isomer, unassigned) [Example 36-A, N-(2-(4-(2-aminopropan-2-yl)-6-(4-fluorophenyl)pyridin-2-yl)-3,3,3-trifluoro-2-hydroxypropyl)-1′-methyl-1′H-[1,3′-bipyrazole]-5′-carboxamide]	< 10
Cn1nc(-n2cccn2)cc1C(=O)NCC(C)(O)c1cc(C(C)(C)N)cc(-c2ccc(C(F)(F)F)cc2)n1 (single isomer, unassigned) [Example 37-B, N-(2-(4-(2-aminopropan-2-yl)-6-(4-(trifluoromethyl)phenyl)pyridin-2-yl)-2-hydroxypropyl)-1′-methyl-1′H-[1,3′-bipyrazole]-5′-carboxamide]	< 10
Cn1nc(-n2cccn2)cc1C(=O)NCC(C)(O)c1cc(C(C)(C)N)cc(-c2ccc(F)c(F)c2)n1 (single isomer, unassigned) [Example 38-B, N-(2-(4-(2-aminopropan-2-yl)-6-(3,4-difluorophenyl)pyridin-2-yl)-2-hydroxypropyl)-1′-methyl-1′H-[1,3′-bipyrazole]-5′-carboxamide]	< 10

same assay, conditions: read-out: RSV EC50; Calu-1 cells, RSV-A2-GFP MOI=1.2, 96 hrs, GFP-expressing cells counted

SMILES	EC50 [nM]
Cn1nc(-n2cccn2)cc1C(=O)NCC(C)(O)c1cc2c(c(-c3ccc(F)cc3)n1)OCC2(C)C(N)=O (single isomer, unassigned) [Example 29-A, 7-(4-fluorophenyl)-5-(2-hydroxy-1-(1′-methyl-1′H-[1,3′-bipyrazole]-5′-carboxamido)propan-2-yl)-3-methyl-2,3-dihydrofuro[2,3-c]pyridine-3-carboxamide]	10 to 100
Cn1nc(-n2cccn2)cc1C(=O)NCC(C)(O)c1cc2c(c(-c3ccc(F)cc3)n1)OCC2(C)C(N)=O (single isomer, unassigned) [Example 29-B, 7-(4-fluorophenyl)-5-(2-hydroxy-1-(1′-methyl-1′H-[1,3′-bipyrazole]-5′-carboxamido)propan-2-yl)-3-methyl-2,3-dihydrofuro[2,3-c]pyridine-3-carboxamide]	> 100
Cn1nc(-n2cccn2)cc1C(=O)NCC(C)(O)c1cc2c(c(-c3ccc(F)cc3)n1)OCC2(C)C(N)=O (single isomer, unassigned) [Example 29-C, 7-(4-fluorophenyl)-5-(2-hydroxy-1-(1′-methyl-1′H-[1,3′-bipyrazole]-5′-carboxamido)propan-2-yl)-3-methyl-2,3-dihydrofuro[2,3-c]pyridine-3-carboxamide]	< 10
Cn1nc(-n2cccn2)cc1C(=O)NCC(C)(O)c1cc2c(c(-c3ccc(F)cc3)n1)OCC2(C)C(N)=O (single isomer, unassigned) [Example 29-D, 7-(4-fluorophenyl)-5-(2-hydroxy-1-(1′-methyl-1′H-[1,3′-bipyrazole]-5′-carboxamido)propan-2-yl)-3-methyl-2,3-dihydrofuro[2,3-c]pyridine-3-carboxamide]	10 to 100
Cn1nc(-c2cscn2)cc1C(=O)NCC(C)(O)c1cc(C(C)(C)C(N)=O)cc(-c2ccc(F)cc2)n1 (single isomer, unassigned) [Example 31-A, N-(2-(4-(1-amino-2-methyl-1-oxopropan-2-yl)-6-(4-fluorophenyl)pyridin-2-yl)-2-hydroxypropyl)-1-methyl-3-(thiazol-4-yl)-1H-pyrazole-5-carboxamide]	> 100
Cn1nc(-c2cscn2)cc1C(=O)NCC(C)(O)c1cc(C(C)(C)C(N)=O)cc(-c2ccc(F)cc2)n1 (single isomer, unassigned) [Example 31-B, N-(2-(4-(1-amino-2-methyl-1-oxopropan-2-yl)-6-(4-fluorophenyl)pyridin-2-yl)-2-hydroxypropyl)-1-methyl-3-(thiazol-4-yl)-1H-pyrazole-5-carboxamide]	< 10
Cn1nc(-c2cscn2)cc1C(=O)NCC(C)(O)c1cc(C(C)(C)O)cc(-c2ccc(F)cc2)n1 (single isomer, unassigned) [Example 32-A, N-(2-(6-(4-fluorophenyl)-4-(2-hydroxypropan-2-yl)pyridin-2-yl)-2-hydroxypropyl)-1-methyl-3-(thiazol-4-yl)-1H-pyrazole-5-carboxamide]	> 100
Cn1nc(-c2cscn2)cc1C(=O)NCC(C)(O)c1cc(C(C)(C)O)cc(-c2ccc(F)cc2)n1 (single isomer, unassigned) [Example 32-B, N-(2-(6-(4-fluorophenyl)-4-(2-hydroxypropan-2-yl)pyridin-2-yl)-2-hydroxypropyl)-1-methyl-3-(thiazol-4-yl)-1H-pyrazole-5-carboxamide]	< 10
CC(N)C(C)(C)c1cc(-c2ccc(F)cc2)nc(C(C)(O)CNC(=O)c2cc(-n3cccn3)nn2C)c1 (single isomer, unassigned) [Example 33-A, N-(2-(4-(3-amino-2-methylbutan-2-yl)-6-(4-fluorophenyl)pyridin-2-yl)-2-hydroxypropyl)-1′-methyl-1′H-[1,3′-bipyrazole]-5′-carboxamide]	> 100
CC(N)C(C)(C)c1cc(-c2ccc(F)cc2)nc(C(C)(O)CNC(=O)c2cc(-n3cccn3)nn2C)c1 (single isomer, unassigned) [Example 33-B, N-(2-(4-(3-amino-2-methylbutan-2-yl)-6-(4-fluorophenyl)pyridin-2-yl)-2-hydroxypropyl)-1′-methyl-1′H-[1,3′-bipyrazole]-5′-carboxamide]	> 100
CC(N)C(C)(C)c1cc(-c2ccc(F)cc2)nc(C(C)(O)CNC(=O)c2cc(-n3cccn3)nn2C)c1 (single isomer, unassigned) [Example 33-C, N-(2-(4-(3-amino-2-methylbutan-2-yl)-6-(4-fluorophenyl)pyridin-2-yl)-2-hydroxypropyl)-1′-methyl-1′H-[1,3′-bipyrazole]-5′-carboxamide]	< 10
CC(N)C(C)(C)c1cc(-c2ccc(F)cc2)nc(C(C)(O)CNC(=O)c2cc(-n3cccn3)nn2C)c1 (single isomer, unassigned) [Example 33-D, N-(2-(4-(3-amino-2-methylbutan-2-yl)-6-(4-fluorophenyl)pyridin-2-yl)-2-hydroxypropyl)-1′-methyl-1′H-[1,3′-bipyrazole]-5′-carboxamide]	< 10
Cn1nc(-n2cccn2)cc1C(=O)NCC(O)c1cc(C(C)(C)N)cc(-c2ccc(F)cc2)n1 (single isomer, unassigned) [Example 34-A, N-(2-(4-(2-aminopropan-2-yl)-6-(4-fluorophenyl)pyridin-2-yl)-2-hydroxyethyl)-1′-methyl-1′H-[1,3′-bipyrazole]-5′-carboxamide]	< 10
Cn1nc(-n2cccn2)cc1C(=O)NCC(O)c1cc(C(C)(C)N)cc(-c2ccc(F)cc2)n1 (single isomer, unassigned) [Example 34-B, N-(2-(4-(2-aminopropan-2-yl)-6-(4-fluorophenyl)pyridin-2-yl)-2-hydroxyethyl)-1′-methyl-1′H-[1,3′-bipyrazole]-5′-carboxamide]	> 100
